Tests used:
Assay in all cases: pre-emergent herbicidal activity, soil incorporation
Assay type in all cases: in vivo
Conditions in all cases: Table III, 2 WAT, 11.2 kg/h
Smartweed = system: Smartweed
Summary of the method: (§1)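 Emergence relative to an untreated control was counted after approximately two weeks and converted to an index of average percent control. Treatment was by admixing the active ingredient into the soil used to cover seeds or vegetative propagules, with watering through pan bottoms.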

Canada Thistle = system: Canada Thistle
Summary of the method: as §1

Yellow Nutsedge = system: Yellow Nutsedge
Summary of the method: as §1

Velvetleaf = system: Velvetleaf
Summary of the method: as §1

Barnyardgrass = system: Barnyardgrass
Summary of the method: as §1

Cocklebur = system: Cocklebur
Summary of the method: as §1

Lambsquarters = system: Lambsquarters
Summary of the method: as §1

Morningglory = system: Morningglory
Summary of the method: as §1

Johnsongrass = system: Johnsongrass
Summary of the method: as §1

Quackgrass = system: Quackgrass
Summary of the method: as §1

Downy Brome = system: Downy Brome
Summary of the method: as §1

| Compound | pre-emergent herbicidal activity index (Smartweed) | pre-emergent herbicidal activity index (Canada Thistle) | pre-emergent herbicidal activity index (Yellow Nutsedge) | pre-emergent herbicidal activity index (Velvetleaf) | pre-emergent herbicidal activity index (Barnyardgrass) | pre-emergent herbicidal activity index (Cocklebur) | pre-emergent herbicidal activity index (Lambsquarters) | pre-emergent herbicidal activity index (Morningglory) | pre-emergent herbicidal activity index (Johnsongrass) | pre-emergent herbicidal activity index (Quackgrass) | pre-emergent herbicidal activity index (Downy Brome) |
| --- | --- | --- | --- | --- | --- | --- | --- | --- | --- | --- | --- |
| CC(C#N)OP(=O)(O)CNCC(=O)OCCCl (stereo not shown) [Example 7, glycine, N-[[(1-cyanoethoxy)hydroxyphosphinyl]methyl], 2-chloroethyl ester] | 0 (1-24% control) | 1 (25-49% control) | 0 (1-24% control) | 0 (1-24% control) | 0 (1-24% control) | 0 (1-24% control) | 0 (1-24% control) | 0 (1-24% control) | 1 (25-49% control) | 0 (1-24% control) | 0 (1-24% control) |
| CC(C#N)OP(=O)(O)CNCC(=O)OCc1ccccc1 (stereo not shown) [Example 10, glycine, N-[[(1-cyanoethoxy)hydroxyphosphinyl]methyl]-,phenylmethyl ester] | 0 (1-24% control) | 3 (75-100% control) | 0 (1-24% control) | 0 (1-24% control) | 0 (1-24% control) | 0 (1-24% control) | 0 (1-24% control) | 0 (1-24% control) | 2 (50-74% control) | 0 (1-24% control) | 0 (1-24% control) |

From US4442044A, “Process for preparing monoesters and diesters of N-alkyl substituted amino methyl phosphonic acid” (priority 1983, dated 1984)
